In US20080182859A1 (Curis, Inc., priority 2006, published 2008) one finds EC50 data, which are given here for 21 molecules.

Molecules are shown by their SMILES. Counter-ions that a name gives are not always drawn. A value given as a limit tells only on which side of the number the result lay.

Type in all cases: cell-based
In assay [1] the test system is sonic hedgehog pathway. Briefly: Hedgehog pathway Gli-luciferase reporter assay, S12 cells. The settings on record: S12 mouse embryonic mesenchymal cells. The text has this:
Mouse (TM3: mouse Leydig cells; S12: mouse embryonic mesenchymal cells) and human (Daoy: human medulloblastoma cell; HepM: human embryonic palatal mesenchymal cell) cell lines are used to screen small molecules for their ability to modulate the activity of the sonic hedgehog pathway (Table 1, Table 2, and Table 3). Stable hedgehog pathway reporter cell lines are established by specific antibiotic selection following transfection of a reporter plasmid containing a luciferase gene located directly downstream from the gli promoter. Consequently, any observable changes in cellular luciferase activity may be attributed to changes in sonic hedgehog pathway activity in mouse and human cells, respectively, since gli is the major by-product of this pathway. To calculate activity, we generate an eleven point dose curve for each compound using 1:3 dilutions in 96 well assay plates. Each plate tested also contains low and high control to establish maximal pathway activation so to establish/compare a percentage activation of each tested compound (AMAX) on respective plates. Also we calculate EC50 values, or a concentration where the pathway will be exactly 50% activated, for each tested compound to determine potency. In these cell lines, compounds that register >20% AMAX values are considered active.
Stable hedgehog pathway reporter cell lines are established following specific antibiotic selection following transfection of a reporter plasmid In short, typically cells are plated in MicroTiter-plates at 10,000-20,000 cells per well, in growth media (containing 10%-20% FBS). After 48-72 hrs (HGL and DGL respectively) the media in the assay plates is switched to low-serum containing media (0.5% FBS). At that time compounds are added (at 1-5 μM) to the assay plates, in the presence or absence of hedgehog protein (octyl-modified version; 1-5 ng/ml). After another 24 hrs of incubation, the media from the assay plates is discarded and replaced with luciferase assay-mix. Subsequently, plates are incubated at RT for ˜15-30 mins and then read in a luminometer. [note: addition of the Hedgehog protein, although not critical, will sensitize the assay allowing the identification of weak actives].
A general note: Reporter assays use an easily measured gene product as a stand-in for the process of interest.

The subject of assay [2] is sonic hedgehog pathway. Briefly: Human hedgehog reporter assay Daoy-GliLuc (DGL). The settings on record: Daoy human medulloblastoma cells, Gli-luciferase reporter. In outline:
(§1)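 Agonist mode: cells carrying a luciferase gene downstream of the gli promoter received compound at 1–5 μM in 0.5% FBS for 24 h, optionally sensitised with 1–5 ng/ml octyl-modified hedgehog protein; luminescence gave % activation and EC50.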

The test system of assay [3] is sonic hedgehog pathway. As to the kind of experiment: Hedgehog pathway Gli-luciferase reporter assay, TM3 cells. To be noted: TM3 mouse Leydig cells. In outline: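 Luminescence read-out of gli-promoter luciferase in stably transfected cells; 11-point 1:3 dose curves, 24 h compound exposure in 0.5% FBS, ± octyl-modified Hh protein 1–5 ng/ml. AMAX as % of plate low/high controls; EC50 from curve; >20% AMAX counted active.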

Assay [4] has as its system sonic hedgehog pathway. Briefly: Human hedgehog reporter assay HEPM-GliLuc (HGL). To be noted: HepM human embryonic palatal mesenchymal cells, Gli-luciferase reporter. The method in brief:
as §1

[5] abbreviates: read-out: Human Daoy (Gli-Luc) Avg. EC50.

For the molecule `CNC1CCC(N(Cc2cc(-c3cccc(SC)c3)ccc2OC)C(=O)c2sc3c(F)ccc(F)c3c2Cl)CC1` (centres unmarked) [Compound 372, 3-Chloro-4,7-difluoro-benzo[b]thiophene-2-carboxylic acid (4-methoxy-3′-methylsulfanyl-biphenyl-3-ylmethyl)-(4-methylamino-cyclohexyl)-amide hydrochloride], the EC50 in the assay on sonic hedgehog pathway [1] (read-out: Mouse S12 Avg. EC50) and with sonic hedgehog pathway [2] (setting [5]) was less than 50 nM in each case.
Take `COc1ccc(-c2cc[n+](C)cc2)cc1CN(C(=O)c1sc2c(F)ccc(F)c2c1Cl)[C@H]1CC[C@@H](N)CC1` [Compound 418]: the results for the EC50 in the assay on sonic hedgehog pathway [1] (read-out: S12 Avg. EC50) and with sonic hedgehog pathway [2] (read-out: Daoy Avg. EC50) were 1000 to 2500 nM and less than 50 nM, respectively.
Regarding `CN[C@H]1CC[C@@H](N(Cc2cc(OC)cc(-c3ccncc3)c2)C(=O)c2sc3c(F)ccc(F)c3c2Cl)CC1` [Compound 394, 3-Chloro-4,7-difluoro-benzo[b]thiophene-2-carboxylic acid (3-methoxy-5-pyridin-4-yl-benzyl)-(4-methylamino-cyclohexyl)-amide bis(trifluoroacetate)], the EC50 in the assay with sonic hedgehog pathway [1] (read-out: Mouse S12 Avg. EC50) and in the assay on sonic hedgehog pathway [2] (setting [5]) was less than 50 nM throughout.
`CN[C@H]1CC[C@H](N(Cc2cc(-c3ccccc3[S+](C)[O-])ccc2OC)C(=O)c2sc3c(F)ccc(F)c3c2Cl)CC1` (some centres unmarked) [Compound 409, 3-Chloro-4,7-difluoro-benzo[b]thiophene-2-carboxylic acid (2′-methanesulfinyl-4-methoxy-biphenyl-3-ylmethyl)-(4-methylamino-cyclohexyl)-amide trifluoroacetate]: the EC50 (usually the concentration at which the effect is half-maximal) in the assay with sonic hedgehog pathway [1] (read-out: S12 Avg. EC50) lay in the range of 250 to 1000 nM; in the assay on sonic hedgehog pathway [2] (read-out: Daoy Avg. EC50), 1000 to 2500 nM.
On to `COc1ccc(-c2cccnc2)cc1CN(C(=O)c1sc2cccc(F)c2c1Cl)[C@H]1CC[C@@H](N)CC1` [Compound 410, 3-Chloro-4-fluoro-benzo[b]thiophene-2-carboxylic acid (4-amino-cyclohexyl)-(2-methoxy-5-pyridin-3-yl-benzyl)-amide], for which the EC50 with sonic hedgehog pathway [1] (read-out: S12 Avg. EC50) and with sonic hedgehog pathway [2] (read-out: Daoy Avg. EC50) was less than 50 nM throughout.
As to `COc1ccc(-c2ccc(S(C)(=O)=O)cc2)cc1CN(C(=O)c1sc2c(F)ccc(F)c2c1Cl)[C@H]1CC[C@@H](N)CC1` [Compound 390, 3-Chloro-4,7-difluoro-benzo[b]thiophene-2-carboxylic acid (4-amino-cyclohexyl)-(4′-methanesulfonyl-4-methoxy-biphenyl-3-ylmethyl)-amide hydrochloride], the EC50 in the assay with sonic hedgehog pathway [1] (read-out: Mouse S12 Avg. EC50) and in the assay on sonic hedgehog pathway [2] (setting [5]) was less than 50 nM each time.
In the case of `CN[C@H]1CC[C@H](N(Cc2cc(-c3cccnc3OC)ccc2OC)C(=O)c2sc3cccc(F)c3c2Cl)CC1` [Compound 413], the values for the EC50 with sonic hedgehog pathway [1] (read-out: S12 Avg. EC50) and in the assay with sonic hedgehog pathway [2] (read-out: Daoy Avg. EC50) were 50 to 250 nM and less than 50 nM, respectively.
For `CCOc1cc(-c2ccc(OC)c(CN(C(=O)c3sc4cccc(F)c4c3Cl)[C@H]3CC[C@H](NC)CC3)c2)ccn1` [Compound 415], the EC50 in the assay with sonic hedgehog pathway [1] (read-out: S12 Avg. EC50) and with sonic hedgehog pathway [2] (read-out: Daoy Avg. EC50) was 50 to 250 nM in each case.
Take `CNC1CCC(N(Cc2cc(-c3ccncc3F)ccc2OC)C(=O)c2sc3c(F)ccc(F)c3c2Cl)CC1` (centres unmarked) [Compound 386, 3-Chloro-4,7-difluoro-benzo[b]thiophene-2-carboxylic acid [5-(3-fluoro-pyridin-4-yl)-2-methoxy-benzyl]-(4-methylamino-cyclohexyl)-amide]: the EC50 with sonic hedgehog pathway [1] (read-out: Mouse S12 Avg. EC50) and in the assay with sonic hedgehog pathway [2] (setting [5]) was less than 50 nM throughout.
`CNC1CCC(N(Cc2cc(-c3cccnc3F)ccc2OC)C(=O)c2sc3c(F)ccc(F)c3c2Cl)CC1` (centres unmarked) [Compound 378, 3-Chloro-4,7-difluoro-benzo[b]thiophene-2-carboxylic acid [5-(2-fluoro-pyridin-3-yl)-2-methoxy-benzyl]-(4-methylamino-cyclohexyl)-amide]: the EC50 with sonic hedgehog pathway [1] (read-out: Mouse S12 Avg. EC50) and with sonic hedgehog pathway [2] (setting [5]) was less than 50 nM throughout.
`CN[C@H]1CC[C@@H](N(Cc2cc(-c3ccc(NS(C)(=O)=O)cc3)ccc2OC)C(=O)c2sc3c(F)ccc(F)c3c2Cl)CC1` [Compound 370, 3-Chloro-4,7-difluoro-benzo[b]thiophene-2-carboxylic acid (4′-methanesulfonylamino-4-methoxy-biphenyl-3-ylmethyl)-(4-methylamino-cyclohexyl)-amide hydrochloride]: the EC50 with sonic hedgehog pathway [1] (read-out: Mouse S12 Avg. EC50) and in the assay with sonic hedgehog pathway [2] (setting [5]) was less than 50 nM throughout.
`CN[C@H]1CC[C@@H](N(Cc2cc(-c3cc[n+]([O-])cc3)ccc2OC)C(=O)c2sc3c(F)ccc(F)c3c2Cl)CC1` [Compound 374, 4-(3-((3-chloro-4,7-difluoro-N-((1s,4s)-4-(methylamino)cyclohexyl)benzo[b]thiophene-2-carboxamido)methyl)-4-methoxyphenyl)pyridine 1-oxide]: the EC50 in the assay on sonic hedgehog pathway [1] (read-out: Mouse S12 Avg. EC50) and in the assay on sonic hedgehog pathway [2] (setting [5]) was less than 50 nM throughout.
With `CNC1CCC(N(Cc2cc(-c3ccc(F)nc3)ccc2OC)C(=O)c2sc3cccc(F)c3c2Cl)CC1` (centres unmarked) [Compound 382, 3-Chloro-4-fluoro-benzo[b]thiophene-2-carboxylic acid [5-(6-fluoro-pyridin-3-yl)-2-methoxy-benzyl]-(4-methylamino-cyclohexyl)-amide], the EC50 in the assay on sonic hedgehog pathway [1] (read-out: Mouse S12 Avg. EC50) and in the assay on sonic hedgehog pathway [2] (setting [5]) was less than 50 nM throughout.
Regarding `CN[C@H]1CC[C@@H](N(Cc2cc(-c3ccc(S(N)(=O)=O)cc3)ccc2OC)C(=O)c2sc3c(F)ccc(F)c3c2Cl)CC1` [Compound 388, 3-Chloro-4,7-difluoro-benzo[b]thiophene-2-carboxylic acid (4-methoxy-4′-sulfamoyl-biphenyl-3-ylmethyl)-(4-methylamino-cyclohexyl)-amide hydrochloride], the EC50 in the assay on sonic hedgehog pathway [1] (read-out: Mouse S12 Avg. EC50) and in the assay with sonic hedgehog pathway [2] (setting [5]) was less than 50 nM in each case.
With `CN[C@H]1CC[C@@H](N(Cc2cc(-c3cncc(F)c3)ccc2OC)C(=O)c2sc3cccc(F)c3c2Cl)CC1` [Compound 383, 3-chloro-4-fluoro-N-(5-(5-fluoropyridin-3-yl)-2-methoxybenzyl)-N-((1s,4s)-4-(methylamino)cyclohexyl)benzo[b]thiophene-2-carboxamide], the EC50 with sonic hedgehog pathway [1] (read-out: Mouse S12 Avg. EC50) and in the assay with sonic hedgehog pathway [2] (setting [5]) was less than 50 nM throughout.
For the molecule `CNC1CCC(N(Cc2cc(-c3cncc(F)c3)ccc2OC)C(=O)c2sc3c(F)ccc(F)c3c2Cl)CC1` (centres unmarked) [Compound 380, 3-Chloro-4,7-difluoro-benzo[b]thiophene-2-carboxylic acid [5-(5-fluoro-pyridin-3-yl)-2-methoxy-benzyl]-(4-methylamino-cyclohexyl)-amide], the EC50 in the assay on sonic hedgehog pathway [1] (read-out: Mouse S12 Avg. EC50) and in the assay with sonic hedgehog pathway [2] (setting [5]) was less than 50 nM each time.
Turning to `CN[C@H]1CC[C@H](N(Cc2cc(-c3ccccc3SC)ccc2OC)C(=O)c2sc3c(F)ccc(F)c3c2Cl)CC1` [Compound 408, 3-Chloro-4,7-difluoro-benzo[b]thiophene-2-carboxylic acid (4-methoxy-2′-methylsulfanyl-biphenyl-3-ylmethyl)-(4-methylamino-cyclohexyl)-amide hydrochloride], the EC50 with sonic hedgehog pathway [1] (read-out: S12 Avg. EC50) and in the assay on sonic hedgehog pathway [2] (read-out: Daoy Avg. EC50) was 250 to 1000 nM in each case.
Take `CNC1CCC(N(Cc2cc(-c3ccnc(F)c3)ccc2OC)C(=O)c2sc3cccc(F)c3c2Cl)CC1` (centres unmarked) [Compound 385, 3-Chloro-4-fluoro-benzo[b]thiophene-2-carboxylic acid [5-(2-fluoro-pyridin-4-yl)-2-methoxy-benzyl]-(4-methylamino-cyclohexyl)-amide]: the EC50 in the assay on sonic hedgehog pathway [1] (read-out: Mouse S12 Avg. EC50) and with sonic hedgehog pathway [2] (setting [5]) was less than 50 nM each time.
Regarding `COc1ccc(-c2ccncc2)cc1CN(C(=O)c1sc2c(F)ccc(F)c2c1Cl)[C@H]1CC[C@@H](N)CC1` [Compound 375, N-((1r,4r)-4-aminocyclohexyl)-3-chloro-4,7-difluoro-N-(2-methoxy-5-(pyridin-4-yl)benzyl)benzo[b]thiophene-2-carboxamide hydrochloride], the EC50 in the assay on sonic hedgehog pathway [1] (read-out: Mouse S12 Avg. EC50) and in the assay with sonic hedgehog pathway [2] (setting [5]) was less than 50 nM each time.
With `CN[C@H]1CC[C@@H](N(Cc2cc(-c3cc(C)nc(C)c3)ccc2OC)C(=O)c2sc3cccc(F)c3c2Cl)CC1` [Compound 353, 3-Chloro-4-fluoro-benzo[b]thiophene-2-carboxylic acid [5-(2,6-dimethyl-pyridin-4-yl)-2-methoxy-benzyl]-(4-methylamino-cyclohexyl)-amide dihydrochloride], the figures for the EC50 in the assay with sonic hedgehog pathway [3], in the assay on sonic hedgehog pathway [2] (read-out: Daoy Avg. EC50) and in the assay on sonic hedgehog pathway [4] were less than 50 nM, 50 to 250 nM and 50 to 250 nM, respectively.
Consider `CN[C@H]1CC[C@@H](N(Cc2cc(-c3cncnc3)ccc2OC)C(=O)c2sc3ccccc3c2Cl)CC1` [324 (R20)], for which the concentration giving a half-maximal response (EC50) is 50 to 250 nM in the assay with sonic hedgehog pathway [3], less than 50 nM in the assay with sonic hedgehog pathway [2] (read-out: Daoy Avg. EC50) and 50 to 250 nM in the assay on sonic hedgehog pathway [4].
